Data from patent publication US20210276960A1, “INHIBITORS OF TISSUE TRANSGLUTAMINASE 2 (TG2) AND USES THEREOF” (Northwestern University, priority 2020, published 2021).

Assays:
OC cells = conditions: 10 μM; not shown, see ref 11; cited from earlier work
TG2 = target: T1, TG2 (Cavia cutleri, UniProt P08587); experiment: Isothermal titration calorimetry (ITC); type: binding
T1 construct: purchased Sigma T5398
Protocol: The 45 kDa fibronectin fragment (FN45) corresponding to the TG2 binding region (Sigma, # F0162) was biotinylated using Biotin (Type A) Fast Conjugation Kit (Abcam, # ab201795). Biotinylated FN45 (10 μg/mL in PBS) was captured on pre-hydrated streptavidin-coated sensors (Pall Forte Bio SAX 18-5117). At each TG2 concentration, the binding kinetics were determined by following this sequence run: baseline (PBS for 30 s), association step (varying concentrations of TG2 in PBS for 120 s), and dissociation step (PBS for 120 s). A new FN45 biosensor was prepared for each run. To analyze the effect of the inhibitor MT4 on the interaction between TG2 and FN, a solution of 20 μg/mL of bio-FN45 was used for capturing FN45 on the streptavidin-coated sensors and the association step was 90 s. For each sensor, the capturing step was measured in real-time in order to assess the stability of the signal and the reproducibility between sensors. The saturation level Rmax was 0.6 (+0.08) for all sensors and no dissociation of the biotinylated FN45 was observed over 60 minutes. […] For the experiments with (TG2+MT4), controls were performed at each MT4 concentration and Rmax values were corrected for non-specific binding and any effects of DMSO on the TG2-FN45 interaction (these effects were below 8%). All BLI experiments were performed at 22° C. […]

SKOV3 cells = experiment: Wound-healing assay, SKOV3; type: cell-based; conditions: 8 μM, 24 hours
Protocol: (§1) Wound Healing was Performed in 12-Well Plates Coated with 1 μg/Ml FN (Sigma, #1141) overnight at 4° C. OC cells were plated at a density of 2×10^5 cells/well in media containing 2% FBS. Under these conditions cells adhered on substrate, but cell proliferation was minimized. After 16 hours, the cell monolayer was scraped in straight line. Cell debris was removed and serum free media containing selected SMIs or control was replenished. For consistency during image acquisition, a reference point was marked close to the scratch mark and the plate was imaged under phase-contrast microscope at 0, 2, 6, 12 and 24 hours. Wound closure was assessed as the distance between the wound edges, calculated and quantified using the Image Pro-Express software. The percentage of wound closure was evaluated using the formula […]. The rate of migration (μm/h) of OC cells into the wound space was evaluated as the distance difference between wound edges at 0 and 24 h, divided by 24. The experiments were performed in duplicates.

OVCAR5 cells [1] = experiment: Wound-healing assay, OVCAR5; type: cell-based, human; conditions: 8 μM, 24 hours
Protocol: as §1

SKOV3-GFP cells = experiment: In vivo cell attachment to the peritoneum; design: species or system mice; conditions: for unattached OC cells recovered from the peritoneal cavity: NSG mice, ip, 10 μg/kg, 2 hours after injection
OVCAR5 cells [2] = experiment: Colony forming assay after priming, with paclitaxel; type: cell-based, human; conditions: priming with 1 μM for 72 hours before 5 nM PTX
Protocol: After 72 h priming with either 1 μM MT-4, TG53 or vehicle (DMSO), 150 OVCAR5 cells were seeded in 60 mm dishes and treated or not with paclitaxel (PTX, Sigma). Colonies were allowed to form over 10 days, fixed in 4% PFA and stained with 0.4% crystal violet (MP Biomedicals). Colonies were counted, and analysis was performed using the ImageJ software ([…]).Spheroid cultures were carried out as previously described(Condello et al., 2015). Briefly, OC cells were resuspended in Mammocult complete medium (StemCell Technologies) supplemented with Mammocult Proliferation Supplements, heparin and hydrocortisone (StemCell Technologies) and seeded at a concentration of 10,000 cells/well in 96-well ultra-low attachment plates (Corning, Corning, N.Y., USA). After treatment with DMSO (control) or TG53 (1 μM) for 7 days, spheroids were counted and quantified by the CCK-8 assay. All assays were performed in four replicates and were repeated. For priming before PTX treatment, cells were manipulated as described for CFU assay and then seeded in 6-well low-attachment plate (Corning, #3473) at 7000 cells/mL/well and allowed to form spheroids in complete Mammocult media. Spheres were counted after ten days from 4 replicate wells. Two independent experiments were performed.

T1 sequence (P08587 whole entry): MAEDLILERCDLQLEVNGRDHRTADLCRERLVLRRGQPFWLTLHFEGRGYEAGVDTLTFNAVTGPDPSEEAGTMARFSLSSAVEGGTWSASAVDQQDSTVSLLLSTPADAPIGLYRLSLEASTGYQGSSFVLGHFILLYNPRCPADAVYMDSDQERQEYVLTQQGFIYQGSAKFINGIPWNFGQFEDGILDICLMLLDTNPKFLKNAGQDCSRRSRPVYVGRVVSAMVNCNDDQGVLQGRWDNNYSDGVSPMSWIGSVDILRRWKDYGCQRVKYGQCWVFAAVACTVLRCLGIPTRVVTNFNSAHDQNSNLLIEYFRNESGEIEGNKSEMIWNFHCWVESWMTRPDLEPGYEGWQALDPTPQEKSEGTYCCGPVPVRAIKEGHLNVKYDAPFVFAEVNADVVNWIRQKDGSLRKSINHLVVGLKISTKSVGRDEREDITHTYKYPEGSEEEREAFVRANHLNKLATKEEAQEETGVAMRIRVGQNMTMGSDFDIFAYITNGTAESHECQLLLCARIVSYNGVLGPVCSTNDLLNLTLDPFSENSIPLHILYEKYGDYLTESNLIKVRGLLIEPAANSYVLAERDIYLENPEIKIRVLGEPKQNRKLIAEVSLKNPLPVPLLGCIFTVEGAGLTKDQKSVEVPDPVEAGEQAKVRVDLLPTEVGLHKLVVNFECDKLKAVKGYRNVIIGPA

Row | Compound | wound closure, cell migration rate, and invasion through matrigel coated trans-well plates (OC cells) | Kd (TG2) [µM] | change in enthalpy, ΔH (TG2; 160 μM MT4 titrated into 10 μM TG2, 25° C.) [kcal/mol] | motility (scratch repair) (SKOV3 cells) | motility (scratch repair) (OVCAR5 cells [1]) | unattached OC cells recovered from the peritoneal cavity (SKOV3-GFP cells) | unattached OC cells recovered from the peritoneal cavity (SKOV3-GFP cells; listed as MT4) | adhesion of cancer cells to the peritoneum (SKOV3-GFP cells; nude mice, i.p., 2 hours) | colony formation (OVCAR5 cells [2])
1 | COc1ccc(Cl)cc1C(=O)Nc1ccc(Nc2nc(C)cc(N(C)C)n2)cc1 [TG53] | decreased |  |  |  |  |  |  |  | 
2 | Cc1cc(N(C)C)nc(Nc2ccc(NC(=O)Cc3ccccc3)cc2)n1 [MT-4] |  | 5.1 | -20.5 | inhibited | inhibited | attached less efficiently | Increased numbers | prevented the adhesion | diminished
